The source of these data is PMC7561186, “Rational design of balanced dual-targeting antibiotics with limited resistance” (PLoS Biology, 2020).

For assay [1] the following is noted: cited from earlier work.
The target of assay [2] is T1, S. aureus topoisomerase IV (Staphylococcus aureus, UniProt P0C1S7).
T1 construct: purchased Inspiralis Ltd., Norwich, UK
The assay can be described thus: S. aureus topoisomerase IV gel-based assay. The conditions noted are these: quadruplicates. Format: biochemical.

Assay [3] relates to S. aureus ATCC 700699 VISA. The assay can be described thus: Time-dependent killing. The conditions noted are these: for Time-kill bacterial count: 10xMIC; for Colony numbers: time-kill raw counts, Samples 1-3. Format: cell-based. The procedure: Time-dependent killing experiments were performed as previously. S. aureus ATCC 700699 VISA cells were inoculated to MHBII agar plates and grown overnight at 37 °C. Next, 3 independent stationer-phase starter cultures were grown at 37 °C, 250 rpm overnight, in 3 × 1 mL MHBII broth. Next, 100-fold diluted cultures were prepared from each in 20 mL fresh MHBII medium and grown at 37 °C, 250 rpm until early exponential phase (OD600 = 0.3–0.4; i.e., 5 × 10^5 cells/mL). […] Cells were treated with antibiotics in Erlenmeyer flasks at 37 °C, 150 rpm for 48 hours. […] Next, 50 μL from each dilution were plated on MHBII agar plates, and plates were incubated overnight at 37 °C to calculate CFU per mL.

Assay [4] has as its system S. aureus VISA ATCC 700699 GyrB / ParE mutants. The assay can be described thus: MIC of spontaneous resistant mutants (single-step and second-step). Format: cell-based. The conditions noted are these: Staphylococcus aureus. Here is the method:
MICs were determined using a standard serial broth microdilution technique according to the CLSI guidelines. Briefly, bacterial strains were inoculated onto MHBII agar plates and were grown overnight at 37 °C. Next, 3 individual colonies from each strain were inoculated into 1 mL MHBII medium and propagated at 37 °C, 250 rpm overnight. In the cases of Enterococcus and Streptococcus sp., cells were plated to BHI agar plates, and BHI broth was used to determine MICs. […] Following dilutions, each well was seeded with 5×10^4 bacterial cells. All measurements were performed in 3 parallel replicates and to avoid possible edge effects in microwell plates, side rows (A and H) were filled with sterile medium. Following inoculations, plates were covered with lids and wrapped in polyethylene plastic bags to minimize evaporation but allow for O2 transfer. Plates were incubated at 37 °C under continuous shaking at 150 rpm for 18 hours. After incubation, OD600 of each well was measured using a BioTek Synergy 2 microplate reader.

For assay [5], the system named is S. aureus ATCC 700699 (VISA). The assay can be described thus: microbe, parasite or virus in culture. Format: cell-based. The conditions noted are these: Staphylococcus aureus, read-out: MIC in adapted strains. Here is the method: Adaptive laboratory evolution experiments followed an established protocol for automated laboratory evolution and aimed to maximize the drug-resistance increment during a fixed time period. […] Experiments were conducted in 96-well plates, in MHBII medium, by utilizing a checkerboard layout to minimize and monitor cross-contamination. These 96-well deep-well plates (0.5 mL, polypropylene, V-bottom) were covered with sandwich covers (Enzyscreen BV) to ensure an optimal oxygen exchange rate and limit evaporation and were shaken at 150 rpm, 37 °C. […] Following cell transfer, each culture was allowed to grow for 48 hours. At each transfer, cell growth was monitored by measuring the OD600 in a BioTek Synergy 2 plate reader. […] Accordingly, only 1 of the 4 populations was retained for each independently evolving strain. This protocol was designed to avoid population extinction and to ensure that populations with the highest level of resistance are propagated further during adaptive evolution. […] Adaptation of populations was terminated after 20 transfers, i.e., 40 days. Following adaptation, cells from each final population were spread onto MHBII agar plates, and individual colonies were isolated. Next, one colony from each adapted line were subjected to capillary sequencing of gyrB and parE to assess their genotype.

A further assay deals with Topoisomerase IV. The conditions noted are these: high-throughput relaxation assay ref 37; cited from earlier work.

SMILES strings stand for the structures. “And” between values parts separate entries of the source, which are not always exact repeats. Identical values can stand only once. Like-named read-outs stand apart in the source and are kept apart here.

T1 sequence (P0C1S7 whole entry): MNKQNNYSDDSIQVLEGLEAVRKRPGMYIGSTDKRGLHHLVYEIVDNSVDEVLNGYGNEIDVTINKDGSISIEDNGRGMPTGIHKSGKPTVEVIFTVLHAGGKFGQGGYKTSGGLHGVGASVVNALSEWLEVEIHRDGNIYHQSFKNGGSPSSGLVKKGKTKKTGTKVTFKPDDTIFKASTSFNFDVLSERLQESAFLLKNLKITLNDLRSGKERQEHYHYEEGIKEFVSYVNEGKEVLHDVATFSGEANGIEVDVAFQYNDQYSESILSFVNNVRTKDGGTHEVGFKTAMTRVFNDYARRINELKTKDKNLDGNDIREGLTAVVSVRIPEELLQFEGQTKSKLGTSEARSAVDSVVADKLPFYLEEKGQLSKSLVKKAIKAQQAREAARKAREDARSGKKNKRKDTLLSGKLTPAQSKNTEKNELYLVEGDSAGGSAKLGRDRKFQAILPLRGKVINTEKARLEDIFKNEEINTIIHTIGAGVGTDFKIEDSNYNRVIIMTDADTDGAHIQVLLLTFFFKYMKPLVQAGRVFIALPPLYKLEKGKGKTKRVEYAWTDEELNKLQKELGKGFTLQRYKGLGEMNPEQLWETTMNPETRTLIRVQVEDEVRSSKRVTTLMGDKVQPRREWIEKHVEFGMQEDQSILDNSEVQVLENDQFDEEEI
T1 sequence (P0C1U9 whole entry, further chain): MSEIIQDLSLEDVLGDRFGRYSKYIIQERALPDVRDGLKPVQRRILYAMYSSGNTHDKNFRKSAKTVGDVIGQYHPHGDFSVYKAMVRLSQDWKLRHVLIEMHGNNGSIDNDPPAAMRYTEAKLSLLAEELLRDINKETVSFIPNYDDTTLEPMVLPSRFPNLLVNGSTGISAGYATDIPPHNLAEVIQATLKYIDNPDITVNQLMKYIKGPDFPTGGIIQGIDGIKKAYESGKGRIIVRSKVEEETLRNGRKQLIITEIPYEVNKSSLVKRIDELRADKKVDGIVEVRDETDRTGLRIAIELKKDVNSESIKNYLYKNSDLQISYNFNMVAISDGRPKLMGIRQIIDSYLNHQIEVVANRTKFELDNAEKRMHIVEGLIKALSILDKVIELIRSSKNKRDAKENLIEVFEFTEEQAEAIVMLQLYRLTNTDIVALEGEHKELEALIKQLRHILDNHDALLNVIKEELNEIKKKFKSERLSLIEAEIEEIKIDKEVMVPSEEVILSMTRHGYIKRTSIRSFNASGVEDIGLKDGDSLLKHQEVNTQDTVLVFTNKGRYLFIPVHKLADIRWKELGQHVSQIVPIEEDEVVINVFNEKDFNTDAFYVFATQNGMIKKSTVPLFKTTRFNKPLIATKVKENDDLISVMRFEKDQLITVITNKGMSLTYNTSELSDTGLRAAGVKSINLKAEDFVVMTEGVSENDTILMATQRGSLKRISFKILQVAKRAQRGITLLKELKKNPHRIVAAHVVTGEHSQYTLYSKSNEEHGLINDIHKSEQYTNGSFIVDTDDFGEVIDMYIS

Consider `O=c1ccc2ncc(=O)n3c2n1C[C@H]3CN1CCC(NCc2cc3c(cn2)OCCC3)CC1` [Gepotidacin], for which, in assay [1], the “increment in resistance level by combination of 2 specific target mutations” value is given as 2,000 fold and the “resistance level (MIC) of double target mutant” value is 256 µg/mL.

By IC50 is commonly meant the midpoint of a concentration-inhibition curve. On to `CO[C@@H]1[C@@H](OC(N)=O)[C@@H](O)[C@H](Oc2ccc3c(O)c(NC(=O)c4ccc(O)c(CC=C(C)C)c4)c(=O)oc3c2C)OC1(C)C` [Novobiocin], for which half-maximal inhibition in assay [2] (IC50) required 2000 nM. Besides, the Time-kill bacterial count in assay [3] (time 0 hour) was found to be 2.80E+05; in assay [3] (time 3 hour) it was 9.90E+04; in assay [3] (time 6 hour) it was 4.70E+04; in assay [3] (time 12 hour), 5.80E+03; in assay [3] (time 18 hour), 1.50E+03; in assay [3] (time 24 hour) it was 8.00E+02. The same compound registered a Time-kill bacterial count in assay [3] (time 48 hour) of 6.40E+02. Further, the Colony numbers in assay [3] (time 0 h, Dilution 100) is 145 and 132 and 137; in assay [3] (time 3 h, Dilution 100), 63 and 38 and 48; in assay [3] (time 6 h, Dilution 100), 21 and 29; in assay [3] (time 12 h, Dilution 10), 33 and 23 and 31; in assay [3] (time 18 h, Dilution 1), 81 and 65 and 84. Besides, the MIC in assay [4] (VISA GyrB I175T) worked out at 0.032 µg/mL; in assay [4] (VISA GyrB R144G), 4 µg/mL; in assay [4] (VISA GyrB R144I), 8 µg/mL; in assay [4] (VISA wt, read-out: MIC), 0.05 µg/mL; in assay [5], 16 µg/mL.

As for `O=C(O)C(=O)Nc1ccc2nc(NC(=O)c3cc(Br)c(Br)[nH]3)sc2c1` [ULD0], at Topoisomerase IV, the half-inhibitory concentration (IC50) was 10 ± 2 µM.
